Experimental data published in patent US12721835B2, “Anticoccidial composition comprising violacein, and use thereof” (CJ CHEILJEDANG CORPORATION, priority 2020, dated 2026).

Tests used:
Eimeria tenella [1] = experiment: In vivo anticoccidial activity upon single inoculation (broilers, formulated feed); parameters: key to ACI: ACI out of 200 = survival% + RWG% − lesion×10 − oocyst index; conditions: Eimeria tenella infection, feed 1 ppm
Protocol: An in vivo anticoccidial efficacy evaluation test was performed in an animal experiment facility in Gyeongsangnam-do, South Korea. One-day-old female Ross broilers were individually weighed and randomly divided into groups to use in an experiment. Matters and conditions for experimental design were described in Table 2.
A breeding farm was managed according to the Korean poultry breeding management guidelines. Cages and the breeding farm were cleaned and disinfected before starting the test. The temperature of […] and the humidity of 40 to 50% of the breeding farm were maintained, and it was continuously monitored.
For the feed, Korea Feed Al-choi product was used, and each material (diclazuril (Yuhan Corporation YUHAN DICLA product), salinomycin (Cheil Bio Cheilsalino-60 product), violacein (CJ Cheiljedang)) was added to the feed, respectively, at a concentration described in Table 3 below to be self-mixed. Antibiotics and supplements were not used in general feed and mixed feed, and no anticoccidial agent other than each material was added. Broilers were fed ad libitum throughout the experiment period. After putting 15 1-day-age broilers in cages randomly placed for each of the control group or test group and breeding, general feed (Al-choi product) was fed for 7 days, and then the mixed feed prepared above was ingested by dividing by control group or test group. The non-infected negative control group used 1cage, and the infected negative control group and experimental group used 2cage to progress the experiment.
The feed formulation administered to the control group (negative control group or positive control group) and test group and whether coccidiosis was induced by Eimeria tenella were described in Table 3 below.
14-day-old broilers were orally inoculated with 10,000 oocysts (90% sporulated Eimeria tenella oocysts) per individual to induce coccidiosis.
The anticoccidial efficacy by test group designed in Example 1-2 above was shown as an anticoccidial index (ACI), and the anticoccidial index was calculated by Equation 2 below. The ACI score is out of 200 points, and the higher the ACI score, the more excellent the anticoccidial ability, and when it is 120 points or more to less than 140 points, it is determined that it is effective as an anticoccidial material, and when it is 140 points or more to less than 160 points, it is determined that it is excellent as an anticoccidial material, and when it is 160 points or more, it is determined that the anticoccidial effect is very excellent (Luis Miguel De Pablos et al., Anticoccidial activity of maslinic acid against infection with Eimeria tenella in chickens, Parasitol Res, 2010). Anticoccidial index (ACI)=(survival rate after challenge inoculation(%))+(daily weight gain compared to negative control group (RWG,%))−(lesion score×10)−(fecal oocyst excretion amount index) (Equation 2) • 1) Survival rate: the number of dead individuals was recorded daily, and post mortem autopsy was performed to determine a cause of mortality, and the number of individuals who died due to causes other than coccidiosis was excluded. The survival rate (%) up to the 8th day after challenge inoculation was used for anticoccidial index calculation. The measured survival rate was described in Table 4 below. • 2) Daily weight gain: body weight was measured for each cage before challenge inoculation with a protozoan into an individual and at the 7th day after challenge inoculation, and the difference was divided by the number of days to calculate the daily weight gain (ADG, g/d). ‘Daily weight gain compared to the negative control group (RWG, %)’ which was calculated by dividing the daily weight gain (ADG, average daily gain; g/d) of each experimental group by the weight gain (ADG, g/d) of the non-infected negative control group and multiplying by 100 was used for anticoccidial index calculation. […]

Eimeria acervulina = experiment: Protozoan (sporozoite) direct killing effect; type: cell-based; conditions: tested 1 to 500 ppm, vs PBS control
Protocol: (§1) In the present example, protozoan (sporozoite) direct killing ability evaluation was conducted against 3 representative Eimeria kinds known to be infected in most farms (E. tenella, E. acervulina, E. maxima).
(§2) A certain amount of oocysts of each coccidial protozoan was put in a tube containing glass beads and pulverized, and then to remove the crushed oocyst cell wall and other debris, internal sporocysts were purified using the percoll density gradient, and washed with PBS solution. A reagent comprising sodium taurocholic acid (Sigma aldrich, USA) and trypsin (Gibco, USA), respectively, was treated to sporocysts of Eimeria tenella, Eimeria acervulina and Eimeria maxima for excystation of the internal sporozoites, and they were incubated, and then they were washed with PBS solution once and the protozoa were obtained.
(§3) After reacting the violacein and anticoccidial agents, salinomycin, diclazuril and gallic acid (hereinafter, material) with 3 kinds of Eimeria protozoa at various concentrations of 1 to 500 ppm, respectively, only alive protozoa (sporozoites) were counted through microscopic observation. […]

Eimeria tenella [2] = experiment: Protozoan (sporozoite) direct killing effect; type: cell-based; conditions: tested 1 to 500 ppm, vs PBS control
Protocol: as §1, §2, §3

Eimeria maxima = experiment: Protozoan (sporozoite) direct killing effect; type: cell-based; conditions: tested 1 to 500 ppm, vs PBS control
Protocol: as §1, §2, §3

Eimeria tenella [3] = experiment: Cell invasion inhibition of protozoa in MDBK cells (ITS-1 PCR); type: cell-based; conditions: MDBK cells, 41° C. 24 hours, read-out: Cell invasion inhibitory effect of protozoa (%)
Protocol: (§4) In the present example, using MDBK cell line which is a representative animal cell known to cause Eimeria infection and propagation, the inhibition ability of intracellular protozoan invasion and intracellular protozoal propagation of the violacein was investigated.
100,000 MDBK cells (purchased from ATCC) were aliquoted in a 24-well plate, and then incubated at a temperature of 37° C. for 12 hours. The protozoan of Eimeria tenella was obtained similar to the method of Example 3 above. 200,000 protozoa per one well were added to wells in which cells were aliquoted, and each material (violacein and anticoccidial agents, salinomycin, diclazuril and gallic acid) was treated to the cells by concentration, and cultured at a temperature of 41° C. for 24 hours. A negative control group is a MDBK cell infected by protozoa of Eimeria tenella, and a positive control group means a group in which salinomycin, diclazuril or gallic acid solution was incubated with the Eimeria tenella protozoan. […] After removing the cells and protozoa inside the cells through pipetting, DNA was extracted from the cells, and PCR was performed using E. tenella ITS-1 (Internal transcribed spacer-1) gene-specific primers. The sequences of the used primers were described in Table 9 below.
Ct values before/after washing for each material were compared and corrected with the ΔCt value of the negative control group to calculate the cell invasion inhibition rate (%) of the protozoa through treatment of each material, and the result was shown in FIG. 3 and Table 10 below.

Eimeria tenella [4] = experiment: Intracellular protozoan propagation inhibition in MDBK cells (ITS-1 PCR); type: cell-based; conditions: MDBK cells, treated after invasion, 24 hours, read-out: Intracellular protozoan propagation inhibitory effect (%)
Protocol: as §4
100,000 MDBK cells (purchased from ATCC) were aliquoted in a 24-well plate, and then incubated at a temperature of 37° C. for 12 hours. The protozoan of Eimeria tenella was obtained similar to the method of Example 3 above. 200,000 protozoa per one well were added to wells in which cells were aliquoted, and cultured at a temperature of 41° C. for 24 hours, and then the cells were washed using PBS solution twice to remove protozoa which were not attached to the cells. Each material (violacein and anticoccidial agents, salinomycin, diclazuril and gallic acid) was treated to the cells by concentration, and further cultured at a temperature of 41° C. for 24 hours. A negative control group is a MDBK cell infected by protozoa, and a positive control group means a group in which salinomycin and diclazuril solution was incubated with the Eimeria tenella protozoan. After removing the cells and protozoa inside the cells through pipetting, DNA was extracted from the cells, and PCR was performed using E. tenella ITS-1 (Internal transcribed spacer-1) gene-specific primers. The sequences of the used primers were described in Table 9 above.
The intracellular protozoan propagation inhibition rate (%) through treatment of the material was calculated by comparing Ct values in the material treatment groups compared to the negative control group, and the result was shown in FIG. 3 and Table 10.

Structure (SMILES): N#CC(c1ccc(Cl)cc1)c1c(Cl)cc(-n2ncc(=O)[nH]c2=O)cc1Cl (stereo not shown) [Diclazuril, diclazuril, reference compound]
- ADG(g/d) after challenge inoculation (Eimeria tenella [1]): 61 g/day
- Oocyst index (Eimeria tenella [1]): 10
- Lesion score (Eimeria tenella [1]; appendix, scale 0-4, 8th day): 1.7
- Oocyst excretion amount/g (Eimeria tenella [1]; feces day 6-8): 1.3e+08 g⁻¹
- Lesion index (Eimeria tenella [1]; lesion score x 10): 17
- ACI (Eimeria tenella [1]; out of 200 points): 169
- Survival rate after challenge inoculation (%) (Eimeria tenella [1]; up to 8th day): 100%
- RWG(%) (Eimeria tenella [1]; vs non-infected negative control): 96%
- Minimum concentration for killing 50% protozoa (sporozoites) (ppm) (Eimeria acervulina): 500 ppm
- Minimum concentration for killing 50% protozoa (sporozoites) (ppm) (Eimeria tenella [2]): >500 ppm
- Minimum concentration for killing 50% protozoa (sporozoites) (ppm) (Eimeria maxima): >500 ppm
- inhibition at 0.5 ppm (Eimeria tenella [3]; 0.5 ppm): 0%
- inhibition at 1 ppm (Eimeria tenella [3]; 1 ppm): 6.3%
- inhibition at 0.5 ppm (Eimeria tenella [4]; 0.5 ppm): 45.9%
- inhibition at 1 ppm (Eimeria tenella [4]; 1 ppm): 52.9%

Structure (SMILES): O=C(O)c1cc(O)c(O)c(O)c1 [Gallic acid, gallic acid]
- Minimum concentration for killing 50% protozoa (sporozoites) (ppm) (Eimeria acervulina): >500 ppm
- Minimum concentration for killing 50% protozoa (sporozoites) (ppm) (Eimeria tenella [2]): >500 ppm
- Minimum concentration for killing 50% protozoa (sporozoites) (ppm) (Eimeria maxima): >500 ppm
- inhibition at 5 ppm (Eimeria tenella [3]; 5 ppm): 76%
- inhibition at 10 ppm (Eimeria tenella [3]; 10 ppm): 90.1%
- inhibition at 5 ppm (Eimeria tenella [4]; 5 ppm): 0%
- inhibition at 10 ppm (Eimeria tenella [4]; 10 ppm): 0%
